Patent US5650412A, “HIV protease inhibitors useful for the treatment of AIDS” (Merck & Co., Inc., priority 1995, dated 1997)

Tests used:
HIV protease = biological target: T1, HIV protease (Human immunodeficiency virus type 1 group M subtype B, UniProt P04585); experiment: Inhibition of Microbial Expressed HIV Protease (protease expressed in Escherichia coli, peptide substrate, HPLC of products); type: biochemical; conditions: 50 mM Na acetate, pH 5.5, 30° C., 1 hour
T1 construct: made in house; host or cells: Escherichia coli
Description: Assay for Inhibition of Microbial Expressed HIV Protease
Inhibition studies of the reaction of the protease expressed in Eschericia coli with a peptide substrate [Val-Ser-Gln-Asn-(betanaphyl)Ala-Pro-Ile-Val, 0.5 mg/mL at the time the reaction is initiated] were in 50 mM Na acetate, pH 5.5, at 30° C. for 1 hour. Various concentrations of inhibitor in […] DMSO were added to […] of the peptide solution in water. The reaction is initiated by the addition of […] of 0.33 nM protease (0.11 ng) in a solution of 0.133M Na acetate pH 5.5 and 0.1% bovine serum albumin. The reaction was quenched with […] of 5% phosphoric acid. Products of the reaction were separated by HPLC (VYDAC wide pore 5 cm C-18 reverse phase, acetonitrile gradient, 0.1% phosphoric acid). The extent of inhibition of the reaction was determined from the peak heights of the products.

HIV-1 = experiment: Cell spread assay: inhibition of the spread of HIV in MT-4 T-lymphoid cell culture; type: cell-based; conditions: Human immunodeficiency virus 1, 72 h; MT-4 T-lymphoid cells, HIV-1 wild-type, 3 days with inhibitor, p24 accumulation; read-out: CIC95 (inhibitor concentration which reduced the spread of infection by at least 95%)
Description: Inhibition of the spread of HIV in cell culture was measured according to Nunberg, J. H. et al., J. Virol. 65, 4887 (1991). In this assay, MT-4 T-lymphoid cells were infected with HIV-1 (wild-type, unless otherwise indicated) by using a predetermined inoculum, and cultures were incubated for 24 h. At this time, ≤1% of the cells were positive by indirect immunofluorescence. Cells were then extensively washed and distributed into 96-well culture dishes. Serial twofold dilutions of inhibitor were added to the wells, and cultures were continued for 3 additional days. At 4 days postinfection, 100% of the cells in control cultures were infected. HIV-1 p24 accumulation was directly correlated with virus spread. The cell culture inhibitory concentration was defined as the inhibitor concentration in nanomoles/liter which reduced the spread of infection by at least 95%, or CIC95. The CIC95 for compound A is 25 nM.
INHIBITION OF VIRUS SPREAD
A. Preparation of HIV-infected MT-4 cell Suspension […]
The concentration of HIV p24 antigen is measured by an enzyme immunoassay, described as follows. Aliquots of p24 antigen to be measured are added to microwells coated with a monoclonal antibody specific for HIV core antigen. […]

## COc1cc(CN2CCN(C[C@@H](O)[C@H](Cc3ccccc3)NC(=O)O[C@@H]3CCS(=O)(=O)[C@@H]3C(C)C)[C@H](C(=O)NC(C)(C)C)C2)cc2c1OCO2 [Compound A, N-tert-butyl-1-[2'(R)-hydroxy-4'-phenyl-3'(S)-[3"(R)-[1'",1'"-dioxo-2'"(R)-methylethyl]tetrahydrothienyloxycarbonylamino]butyl]-4-[(3'-methoxy-4',5'-methylenedioxyphenyl)methyl]piperazine-2(S)-carboxamide]
HIV protease
  IC50: ~1.2 nM
HIV-1
  IC95: 25 nM
